One experiment has as its target CDK1/Cyclin B1 (Homo sapiens, UniProt P06493). Kind of experiment: CDK1/Cyclin B1 Biochemical Assay (TR-FRET), 0.015 mM ATP. The conditions noted are these: 0.15 μM Rb (Ser780)-biotin substrate, pH7.0, 60 min preincubation, 120 min reaction, room temperature. The gist of the method: (§1)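 IC50 was from a four-parameter logistic fit of the 665/620 nm TR-FRET ratio (Eu anti-pRb Ser780 mAb, streptavidin-XL665). Compound (0-10 μM) was preincubated 60 min with enzyme, then reacted 120 min at room temperature with 0.15 μM biotinylated Rb (Ser780) peptide. ATP was 0.015 mM for CDK1/Cyclin B1 and 0.060 mM for CDK2/Cyclin E1; buffer was HEPES pH7.0.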

A further experiment concerns the target CDK2/Cyclin E1 (Homo sapiens, UniProt P24941). Kind of experiment: CDK2/Cyclin E1 Biochemical Assay (TR-FRET), 0.060 mM ATP. The conditions noted are these: 0.15 μM Rb (Ser780)-biotin substrate, pH7.0, 60 min preincubation, 120 min reaction, room temperature. In outline: as §1
On the technique in general: Time-resolved FRET reads energy transfer from a long-lived donor to a nearby acceptor.

Molecules are shown by their SMILES.

CDK1/Cyclin B1, sequence (P06493 whole entry): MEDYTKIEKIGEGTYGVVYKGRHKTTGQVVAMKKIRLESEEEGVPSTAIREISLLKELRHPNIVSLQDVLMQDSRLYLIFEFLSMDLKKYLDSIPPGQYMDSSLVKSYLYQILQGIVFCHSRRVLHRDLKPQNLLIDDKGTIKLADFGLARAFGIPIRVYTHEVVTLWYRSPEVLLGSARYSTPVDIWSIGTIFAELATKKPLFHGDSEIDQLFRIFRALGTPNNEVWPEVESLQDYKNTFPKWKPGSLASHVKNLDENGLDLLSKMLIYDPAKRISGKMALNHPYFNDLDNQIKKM
CDK1/Cyclin B1, sequence (P14635 whole entry partner): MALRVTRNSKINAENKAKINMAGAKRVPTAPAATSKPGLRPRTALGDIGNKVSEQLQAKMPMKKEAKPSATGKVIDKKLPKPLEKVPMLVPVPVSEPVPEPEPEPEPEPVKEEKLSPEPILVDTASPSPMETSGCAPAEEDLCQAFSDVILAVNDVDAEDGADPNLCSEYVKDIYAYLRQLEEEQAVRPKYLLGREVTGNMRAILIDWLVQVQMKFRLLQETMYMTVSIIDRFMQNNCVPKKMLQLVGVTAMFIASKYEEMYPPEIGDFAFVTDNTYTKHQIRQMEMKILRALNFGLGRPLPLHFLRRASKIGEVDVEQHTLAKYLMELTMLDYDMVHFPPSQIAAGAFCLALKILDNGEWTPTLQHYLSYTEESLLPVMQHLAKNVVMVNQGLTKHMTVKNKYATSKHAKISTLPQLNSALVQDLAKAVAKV

In general, IC50 refers to the concentration that gives 50% inhibition. As for `COCC(C)NC(=O)O[C@H]1CC[C@@H](c2cc(Nc3ccc4c(c3F)CS(=O)(=O)N4C3CC3)n[nH]2)C1` (relative stereo) [Example 367, cis-3-(3-((1-cyclopropyl-4-fluoro-2,2-dioxido-1,3-dihydrobenzo[c]isothiazol-5-yl)amino)-1H-pyrazol-5-yl)cyclopentyl(1-methoxypropan-2-yl)carbamate], the IC50 worked out at 117 nM at CDK1/Cyclin B1 and 1.7 nM against CDK2/Cyclin E1.
As for `C[C@H]1[C@H](O)CN1C(=O)O[C@H]1CC[C@@H](c2cc(Nc3ccc4c(c3F)CS(=O)(=O)N4C)n[nH]2)C1` (relative stereo) [Example 355, cis-3-(3-((4-fluoro-1-methyl-2,2-dioxido-1,3-dihydrobenzo[c]isothiazol-5-yl)amino)-1H-pyrazol-5-yl)cyclopentyl(2S,3R)-3-hydroxy-2-methylazetidine-1-carboxylate], the IC50 against CDK1/Cyclin B1 stood at 361 nM; against CDK2/Cyclin E1, 19 nM.
The matching figures for `CC1(NC(=O)O[C@H]2CC[C@@H](c3cc(Nc4ccc5c(c4)CCS(=O)(=O)N5)n[nH]3)C2)CC1` (racemic) [Example 249, cis-3-(3-((2,2-dioxido-3,4-dihydro-1H-benzo[c][1,2]thiazin-6-yl)amino)-1H-pyrazol-5-yl)cyclopentyl(1-methylcyclopropyl)carbamate]: 29 nM and 2.1 nM.
The like results for `CCCNC(=O)O[C@H]1CC[C@@H](c2cc(Nc3ccc4c(c3F)C(C)NS4(=O)=O)n[nH]2)C1` (single isomer, unassigned) [Example 53b, cis-3-(3-((4-fluoro-3-methyl-1,1-dioxido-2,3-dihydrobenzo[d]isothiazol-5-yl)amino)-1H-pyrazol-5-yl)cyclopentyl propylcarbamate] were, in that order, 92 nM and 3.8 nM.
The like results for `CC(C)NC(=O)O[C@H]1CC[C@@H](c2cc(Nc3ccc4c(c3F)CN(C3CN(C)C3)S4(=O)=O)n[nH]2)C1` (relative stereo) [Example 91, cis-3-(3-((4-fluoro-2-(1-methylazetidin-3-yl)-1,1-dioxido-2,3-dihydrobenzo[d]isothiazol-5-yl)amino)-1H-pyrazol-5-yl)cyclopentyl isopropylcarbamate] were, in that order, 945 nM and 24 nM.
Take `COCC(C)NC(=O)O[C@H]1CC[C@@H](c2cc(Nc3ccc4c(c3)CS(=O)(=O)N4C)n[nH]2)C1` (relative stereo) [Example 226, cis-3-(3-((1-methyl-2,2-dioxido-1,3-dihydrobenzo[c]isothiazol-5-yl)amino)-1H-pyrazol-5-yl)cyclopentyl(1-methoxypropan-2-yl)carbamate]: the IC50 at CDK1/Cyclin B1 is 77 nM; on CDK2/Cyclin E1 it was 2 nM.
As to `COCC(C)NC(=O)O[C@H]1CC[C@@H](c2cc(Nc3ccc4c(c3)CS(=O)(=O)N4)n[nH]2)C1` (relative stereo) [Example 197, cis-3-(3-((2,2-dioxido-1,3-dihydrobenzo[c]isothiazol-5-yl)amino)-1H-pyrazol-5-yl)cyclopentyl(1-methoxypropan-2-yl)carbamate], the IC50 was determined as 119 nM against CDK1/Cyclin B1 and 12 nM on CDK2/Cyclin E1.
As for `CC(C)NC(=O)O[C@H]1CC[C@@H](c2cc(Nc3cc4c(cc3Cl)S(=O)(=O)NC4)n[nH]2)C1` (relative stereo) [Example 27, cis-3-(3-((6-chloro-1,1-dioxido-2,3-dihydrobenzo[d]isothiazol-5-yl)amino)-1H-pyrazol-5-yl)cyclopentyl isopropylcarbamate], the IC50 worked out at 958 nM on CDK1/Cyclin B1 and 33 nM against CDK2/Cyclin E1.
In the case of `CC(C)NC(=O)O[C@H]1CC[C@@H](c2cc(Nc3ccc4c(c3F)CN(C)S4(=O)=O)n[nH]2)C1` (single isomer, unassigned) [Example 121a, cis-3-(3-((4-fluoro-2-methyl-1,1-dioxido-2,3-dihydrobenzo[d]isothiazol-5-yl)amino)-1H-pyrazol-5-yl)cyclopentyl isopropylcarbamate], the IC50 against CDK1/Cyclin B1 stood at 425 nM; on CDK2/Cyclin E1, 5.8 nM.
The matching figures for `CC(C)NC(=O)O[C@H]1CC[C@@H](c2cc(Nc3ccc4c(c3F)CN(CC3CN(S(C)(=O)=O)C3)S4(=O)=O)n[nH]2)C1` (relative stereo) [Example 326, cis-3-(3-((4-fluoro-2-((1-(methylsulfonyl)azetidin-3-yl)methyl)-1,1-dioxido-2,3-dihydrobenzo[d]isothiazol-5-yl)amino)-1H-pyrazol-5-yl)cyclopentyl isopropylcarbamate]: 290 nM and 6.6 nM.
For the molecule `CC(C)NC(=O)O[C@H]1CC[C@@H](c2cc(Nc3ccc4c(c3F)CN(C3CCC(=O)N(C)C3)S4(=O)=O)n[nH]2)C1` (relative stereo) [Example 83, cis-3-(3-((4-fluoro-2-(1-methyl-6-oxopiperidin-3-yl)-1,1-dioxido-2,3-dihydrobenzo[d]isothiazol-5-yl)amino)-1H-pyrazol-5-yl)cyclopentyl isopropylcarbamate], the IC50 at CDK1/Cyclin B1 amounted to 565 nM; at CDK2/Cyclin E1 it was 15 nM.
Consider `CC1(NC(=O)O[C@H]2CC[C@@H](c3cc(Nc4ccc5c(c4F)CS(=O)(=O)N5CCO)n[nH]3)C2)CC1` (relative stereo) [Example 274, cis-3-(3-((4-fluoro-1-(2-hydroxyethyl)-2,2-dioxido-1,3-dihydrobenzo[c]isothiazol-5-yl)amino)-1H-pyrazol-5-yl)cyclopentyl(1-methylcyclopropyl)carbamate], for which the IC50 worked out at 22 nM against CDK1/Cyclin B1 and 1 nM at CDK2/Cyclin E1.
The matching figures for `O=C(NCCC(F)(F)F)O[C@H]1CC[C@@H](c2cc(Nc3cc4c(cc3F)S(=O)(=O)NC4)n[nH]2)C1` (single isomer, unassigned) [Example 419b]: 78 nM and 1.8 nM.
For `CC(C)NC(=O)O[C@H]1CC[C@@H](c2cc(Nc3ccc4c(n3)CNS4(=O)=O)n[nH]2)C1` (relative stereo) [Example 33, cis-3-(3-((1,1-dioxido-2,3-dihydroisothiazolo[4,5-b]pyridin-5-yl)amino)-1H-pyrazol-5-yl)cyclopentyl isopropylcarbamate], the IC50 against CDK1/Cyclin B1 stood at 38 nM; against CDK2/Cyclin E1, 1.8 nM.
Regarding `CC(C)NC(=O)O[C@H]1CC[C@@H](c2cc(Nc3ccc4c(c3F)CN(C3CCCC3O)S4(=O)=O)n[nH]2)C1` (relative stereo) [Example 109, cis-3-(3-((4-fluoro-2-(2-hydroxycyclopentyl)-1,1-dioxido-2,3-dihydrobenzo[d]isothiazol-5-yl)amino)-1H-pyrazol-5-yl)cyclopentyl isopropylcarbamate], the values for the IC50 against CDK1/Cyclin B1 and at CDK2/Cyclin E1 were 1190 nM and 11 nM, respectively.
The matching figures for `CC(C)NC(=O)O[C@H]1CC[C@@H](c2cc(Nc3ccc4c(c3F)CN(CC(F)(F)F)S4(=O)=O)n[nH]2)C1` (relative stereo) [Example 66, cis-3-(3-((4-fluoro-1,1-dioxido-2-(2,2,2-trifluoroethyl)-2,3-dihydrobenzo[d]isothiazol-5-yl)amino)-1H-pyrazol-5-yl)cyclopentyl isopropylcarbamate]: 412 nM and 7.3 nM.
The like results for `CC(C)NC(=O)O[C@H]1CC[C@@H](c2cc(Nc3ccc4c(c3)C(C)S(=O)(=O)N4)n[nH]2)C1` (single isomer, unassigned) [Example 384c, cis-3-(3-((3-methyl-2,2-dioxido-1,3-dihydrobenzo[c]isothiazol-5-yl)amino)-1H-pyrazol-5-yl)cyclopentyl isopropylcarbamate] were, in that order, 14 nM and 1.2 nM.
The like results for `CC(C)NC(=O)O[C@H]1CC[C@@H](c2cc(Nc3ccc4c(c3)CS(=O)(=O)N4CC(F)(F)F)n[nH]2)C1` (relative stereo) [Example 205, cis-3-(3-((2,2-dioxido-1-(2,2,2-trifluoroethyl)-1,3-dihydrobenzo[c]isothiazol-5-yl)amino)-1H-pyrazol-5-yl)cyclopentyl isopropylcarbamate] were, in that order, 41 nM and 7.5 nM.
`CC(C)NC(=O)O[C@H]1CC[C@@H](c2cc(Nc3ccc4c(c3F)CN(C3CC3)S4(=O)=O)n[nH]2)C1` (single isomer, unassigned) [Example 116a, cis-3-(3-((2-cyclopropyl-4-fluoro-1,1-dioxido-2,3-dihydrobenzo[d]isothiazol-5-yl)amino)-1H-pyrazol-5-yl)cyclopentyl isopropylcarbamate]: the values for the IC50 against CDK1/Cyclin B1 and against CDK2/Cyclin E1 were 518 nM and 5.4 nM, respectively.
The matching figures for `O=C(O[C@H]1CC[C@@H](c2cc(Nc3ccc4c(c3)CNS4(=O)=O)n[nH]2)C1)N1CCC(O)C1` (relative stereo) [Example 175, cis-3-(3-((1,1-dioxido-2,3-dihydrobenzo[d]isothiazol-5-yl)amino)-1H-pyrazol-5-yl)cyclopentyl 3-hydroxypyrrolidine-1-carboxylate]: 359 nM and 10 nM.
Regarding `CC(C)NC(=O)O[C@H]1CC[C@@H](c2cc(Nc3cc4c(cc3C(F)(F)F)S(=O)(=O)NC4(C)C)n[nH]2)C1` (relative stereo) [Example 21, cis-3-(3-((3,3-dimethyl-1,1-dioxido-6-(trifluoromethyl)-2,3-dihydrobenzo[d]isothiazol-5-yl)amino)-1H-pyrazol-5-yl)cyclopentyl isopropylcarbamate], the IC50 on CDK1/Cyclin B1 and against CDK2/Cyclin E1 was above 10000 nM throughout.
In the case of `CN1c2ccc(Nc3cc([C@@H]4CC[C@H](OC(=O)NC5COC5)C4)[nH]n3)cc2CS1(=O)=O` (relative stereo) [Example 236, cis-3-(3-((1-methyl-2,2-dioxido-1,3-dihydrobenzo[c]isothiazol-5-yl)amino)-1H-pyrazol-5-yl)cyclopentyl oxetan-3-ylcarbamate], the IC50 against CDK1/Cyclin B1 amounted to 320 nM; on CDK2/Cyclin E1, 47 nM.

The values are drawn from patent US20260297080A1, “BICYCLIC COMPOUNDS AS CDK INHIBITORS” (BeOne Medicines I GmbH, priority 2022, published 2026).
